Our source for the pest or weed control values is patent publication US20230017045A1, “PYRIDINE AND PYRIMIDINE CARBOXYLATE HERBICIDES AND METHODS OF USE THEREOF” (Dow AgroSciences LLC, priority 2017, published 2023).

The experiment deals with test plant species. In words: Post-emergent herbicidal activity test (greenhouse, foliar spray, visual growth reduction). The experiment is classed as in vivo. The conditions noted are these: post-emergence, 336 h, 140 g ai/ha. Summed up: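 Seedlings were raised 7-21 d in a greenhouse under a 15 h photoperiod until the first or second true leaf. Each compound, dissolved in acetone:DMSO 97:3 and diluted into a surfactant-containing spray mixture, was then applied at 187 L/ha. Plants were subirrigated, and growth reduction was scored visually at 14 d.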

The mark [1] stands for this setting: ECHCG: barnyardgrass (Echinochloa crus-galli), 14 days after application, read-out: Visual Growth Reduction (%) 14 Days After Application, ECHCG.
The mark [2] stands for this setting: IPOHE: ivy-leaf morning glory (Ipomoea hederacea), 14 days after application, read-out: Visual Growth Reduction (%) 14 Days After Application, IPOHE.
Setting [3] is: KCHSC: kochia (Bassia scoparia), 14 days after application, read-out: Visual Growth Reduction (%) 14 Days After Application, KCHSC.
Where [4] appears, read: ORYSA: rice (Oryza sativa), 14 days after application, read-out: Visual Growth Reduction (%) 14 Days After Application, ORYSA.
The mark [5] stands for this setting: SETFA: giant foxtail (Setaria faberi), 14 days after application, read-out: Visual Growth Reduction (%) 14 Days After Application, SETFA.
[6] abbreviates: SORVU: grain sorghum (Sorghum vulgare), 14 days after application, read-out: Visual Growth Reduction (%) 14 Days After Application, SORVU.
Setting [7] is: STEME: common chickweed (Stellaria media), 14 days after application, read-out: Visual Growth Reduction (%) 14 Days After Application, STEME.
Setting [8] is: TRZAS: wheat, spring (Triticum aestivum), 14 days after application, read-out: Visual Growth Reduction (%) 14 Days After Application, TRZAS.
[9] abbreviates: blackgrass (Alopecurus myosuroides), 14 Days After Application, read-out: Visual Growth Reduction (%) ALOMY.
Where [10] appears, read: canada thistle (Cirsium arvense), 14 Days After Application, read-out: Visual Growth Reduction (%) CIRAR.
[11] abbreviates: crabgrass (Digitaria sanguinalis), 14 Days After Application, read-out: Visual Growth Reduction (%) DIGSA.
Setting [12] is: lambsquarters (Chenopodium album), 14 Days After Application, read-out: Visual Growth Reduction (%) CHEAL.
[13] abbreviates: redroot pigweed (Amaranthus retroflexus), 14 Days After Application, read-out: Visual Growth Reduction (%) AMARE.
The mark [14] stands for this setting: wild oat (Avena fatua), 14 Days After Application, read-out: Visual Growth Reduction (%) AVEFA.
Setting [15] is: yellow nutsedge (Cyperus esculentus), 14 Days After Application, read-out: Visual Growth Reduction (%) CYPES.

Read-outs that look alike come from different tables or passages of the source.

Turning to `CCC(F)c1c(Cl)ccc(-c2ccc(Cl)c(C(=O)OC)n2)c1F` (stereo not drawn) [F285, Methyl 3-chloro-6-(4-chloro-2-fluoro-3-(1-fluoropropyl)phenyl) picolinate], the pest or weed control at 140 g/ha runs as follows: under setting [1], 0 to 29%; under setting [2], 0 to 29%; under setting [3], 0 to 29%; under setting [4], 0 to 29%; under setting [5], 0 to 29%; under setting [6], 0 to 29%. Further, the pest or weed control at 140 g/ha under setting [7] fell in the range of 0 to 29%; the pest or weed control at 140 g/ha under setting [8] lay in the range of 0 to 29%; the pest or weed control at 140 g/ha under setting [9] was 0 to 29%; the pest or weed control at 140 g/ha under setting [10] was 30 to 44%; the pest or weed control at 140 g/ha under setting [11] lay within 0 to 29%; the pest or weed control at 140 g/ha under setting [12] was in the range of 0 to 29%. The pest or weed control at 140 g/ha runs as follows: under setting [13], 0 to 29%; under setting [14], 0 to 29%; under setting [15], 0 to 29%.
As for `CCCOC(=O)c1nc(-c2ccc(Cl)c(OC)c2F)ccc1Cl` [F286, Propyl 3-chloro-6-(4-chloro-2-fluoro-3-methoxyphenyl) picolinate], the pest or weed control at 140 g/ha is, setting by setting: under setting [1], 0 to 29%; under setting [2], 60 to 74%; under setting [3], 60 to 74%; under setting [4], 0 to 29%; under setting [5], 0 to 29%; under setting [6], 0 to 29%. Moreover, the pest or weed control at 140 g/ha under setting [7] lay within 0 to 29%; the pest or weed control at 140 g/ha under setting [8] lay within 0 to 29%; the pest or weed control at 140 g/ha under setting [9] lay within 0 to 29%; the pest or weed control at 140 g/ha under setting [10] is 60 to 74%; the pest or weed control at 140 g/ha under setting [11] was 0 to 29%; the pest or weed control at 140 g/ha under setting [12] lay within 75 to 84%. Moreover, the pest or weed control at 140 g/ha was in the range of 0 to 29% under setting [13], 0 to 29% under setting [14] and 0 to 29% under setting [15].
`COC(=O)c1nc(-c2ccc(C3CC3)c(F)c2)ccc1Cl` [F287, Methyl 3-chloro-6-(4-cyclopropyl-3-fluorophenyl) picolinate]: the pest or weed control at 140 g/ha is, setting by setting: under setting [1], 0 to 29%; under setting [2], 60 to 74%; under setting [3], 0 to 29%; under setting [4], 0 to 29%; under setting [5], 0 to 29%; under setting [6], 0 to 29%. Also, the pest or weed control at 140 g/ha under setting [7] is 0 to 29%; the pest or weed control at 140 g/ha under setting [8] is 0 to 29%; the pest or weed control at 140 g/ha under setting [9] fell in the range of 0 to 29%; the pest or weed control at 140 g/ha under setting [10] was in the range of 0 to 29%; the pest or weed control at 140 g/ha under setting [11] was 0 to 29%; the pest or weed control at 140 g/ha under setting [12] lay within 0 to 29%. The pest or weed control at 140 g/ha by setting is: under setting [13], 0 to 29%; under setting [14], 0 to 29%; under setting [15], 0 to 29%.
Turning to `COC(=O)c1nc(-c2ccc(OS(C)(=O)=O)cc2Cl)ccc1Cl` [F288, methyl 3-chloro-6-(2-chloro-4-((methylsulfonyl)oxy)phenyl)picolinate], the pest or weed control at 140 g/ha runs as follows: under setting [1], 60 to 74%; under setting [2], 95 to 100%; under setting [3], 75 to 84%; under setting [4], 0 to 29%; under setting [5], 60 to 74%; under setting [6], 85 to 94%. The pest or weed control at 140 g/ha by setting is: under setting [7], 0 to 29%; under setting [8], 30 to 44%; under setting [9], 0 to 29%; under setting [10], 95 to 100%; under setting [11], 75 to 84%; under setting [12], 85 to 94%. Also, the pest or weed control at 140 g/ha lay within 85 to 94% under setting [13], 0 to 29% under setting [14] and 0 to 29% under setting [15].
As for `COC(=O)c1nc(-c2cccc(C(F)(F)F)c2F)ccc1Cl` [F289, Methyl 3-chloro-6-(2-fluoro-3-(trifluoromethyl)phenyl)picolinate], the pest or weed control at 140 g/ha under setting [1] lay in the range of 0 to 29%; the pest or weed control at 140 g/ha under setting [2] was in the range of 45 to 59%; the pest or weed control at 140 g/ha under setting [3] lay within 0 to 29%; the pest or weed control at 140 g/ha under setting [4] lay in the range of 0 to 29%; the pest or weed control at 140 g/ha under setting [5] was 0 to 29%; the pest or weed control at 140 g/ha under setting [6] was in the range of 0 to 29%. In addition, the pest or weed control at 140 g/ha under setting [7] lay in the range of 0 to 29%; the pest or weed control at 140 g/ha under setting [8] was in the range of 0 to 29%; the pest or weed control at 140 g/ha under setting [9] was 0 to 29%; the pest or weed control at 140 g/ha under setting [10] fell in the range of 30 to 44%; the pest or weed control at 140 g/ha under setting [11] is 0 to 29%; the pest or weed control at 140 g/ha under setting [12] is 30 to 44%. Also, the pest or weed control at 140 g/ha was in the range of 0 to 29% under setting [13], 0 to 29% under setting [14] and 0 to 29% under setting [15].
For `COC(=O)c1nc(-c2cccc(OC(F)(F)F)c2F)ccc1Cl` [F290, Methyl 3-chloro-6-(2-fluoro-3-(trifluoromethoxy)phenyl)picolinate], the pest or weed control at 140 g/ha by setting is: under setting [1], 0 to 29%; under setting [2], 75 to 84%; under setting [3], 0 to 29%; under setting [4], 0 to 29%; under setting [5], 0 to 29%; under setting [6], 0 to 29%. Also, the pest or weed control at 140 g/ha lay in the range of 0 to 29% under setting [7]; 0 to 29% under setting [8]; 0 to 29% under setting [9]; 0 to 29% under setting [10]; 0 to 29% under setting [11]; 0 to 29% under setting [12]. Also, the pest or weed control at 140 g/ha lay within 0 to 29% under setting [13], 0 to 29% under setting [14] and 60 to 74% under setting [15].
As for `COC(=O)c1nc(-c2cc(F)c(OC)cc2F)ccc1Cl` [F291, Methyl 3-chloro-6-(2,5-difluoro-4-methoxyphenyl) picolinate], the pest or weed control at 140 g/ha lay within 0 to 29% under setting [1]; 0 to 29% under setting [2]; 0 to 29% under setting [3]; 0 to 29% under setting [4]; 0 to 29% under setting [5]; 0 to 29% under setting [6]. Further, the pest or weed control at 140 g/ha reads like this: under setting [7], 0 to 29%; under setting [8], 0 to 29%; under setting [9], 0 to 29%; under setting [10], 30 to 44%; under setting [11], 0 to 29%; under setting [12], 45 to 59%. Besides, the pest or weed control at 140 g/ha under setting [13] fell in the range of 0 to 29%, the pest or weed control at 140 g/ha under setting [14] lay in the range of 0 to 29% and the pest or weed control at 140 g/ha under setting [15] was 0 to 29%.
As to `COC(=O)c1nc(-c2ccc(F)c(OC)c2)ccc1Cl` [F292, Methyl 3-chloro-6-(4-fluoro-3-methoxyphenyl) picolinate], the pest or weed control at 140 g/ha reads like this: under setting [1], 0 to 29%; under setting [2], 30 to 44%; under setting [3], 45 to 59%; under setting [4], 0 to 29%; under setting [5], 0 to 29%; under setting [6], 0 to 29%. Further, the pest or weed control at 140 g/ha lay in the range of 0 to 29% under setting [7]; 0 to 29% under setting [8]; 0 to 29% under setting [9]; 60 to 74% under setting [10]; 0 to 29% under setting [11]; 85 to 94% under setting [12]. For the same compound, the pest or weed control at 140 g/ha under setting [13] lay within 0 to 29%, the pest or weed control at 140 g/ha under setting [14] fell in the range of 0 to 29% and the pest or weed control at 140 g/ha under setting [15] lay within 60 to 74%.
Turning to `Cc1c(C(F)(F)F)ccc(-c2ccc(Cl)c(C(=O)O)n2)c1F` [F293, 3-Chloro-6-(2-fluoro-3-methyl-4-(trifluoromethyl)phenyl)picolinic acid], the pest or weed control at 140 g/ha under setting [1] is 0 to 29%; the pest or weed control at 140 g/ha under setting [2] fell in the range of 0 to 29%; the pest or weed control at 140 g/ha under setting [3] lay in the range of 0 to 29%; the pest or weed control at 140 g/ha under setting [4] lay in the range of 0 to 29%; the pest or weed control at 140 g/ha under setting [5] fell in the range of 0 to 29%; the pest or weed control at 140 g/ha under setting [6] fell in the range of 0 to 29%. Besides, the pest or weed control at 140 g/ha is 0 to 29% under setting [7]; 0 to 29% under setting [8]; 0 to 29% under setting [9]; 30 to 44% under setting [10]; 0 to 29% under setting [11]; 45 to 59% under setting [12]. For the same compound, the pest or weed control at 140 g/ha by setting is: under setting [13], 0 to 29%; under setting [14], 0 to 29%; under setting [15], 0 to 29%.
